Here are results for 29 molecules from patent publication US8759334B2, “Compounds useful for the treatment of metabolic and inflammatory diseases” (Galapagos NV, priority 2011, dated 2014).

For the assay, the target named is T1, GPR43 (Homo sapiens, UniProt O15552).
T1 construct: expressed in transfected cells
T1 sequence (O15552 1-330): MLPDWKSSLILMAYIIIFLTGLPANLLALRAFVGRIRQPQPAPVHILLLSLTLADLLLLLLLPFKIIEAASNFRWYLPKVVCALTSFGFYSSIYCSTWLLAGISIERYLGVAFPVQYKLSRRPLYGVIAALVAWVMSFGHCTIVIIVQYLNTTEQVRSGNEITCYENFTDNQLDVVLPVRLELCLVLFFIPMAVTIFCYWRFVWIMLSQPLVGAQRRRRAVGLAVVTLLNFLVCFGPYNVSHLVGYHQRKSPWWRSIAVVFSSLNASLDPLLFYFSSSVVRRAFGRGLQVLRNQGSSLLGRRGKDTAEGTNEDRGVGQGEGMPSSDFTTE
Briefly: Calcium mobilization assay with probenecid. It counts as cell-based. To be noted: GPR43 stably expressing cells; triggered with sodium acetate at EC80; 2.5 mM probenecid; read-out: GPR43 assay with probenicid IC50. In short, it runs like this:
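[…] being added at rising concentrations to a GPR43 stable line. Before this, cells were dye-loaded (Calcium 4 with 2.5 mM probenecid) for 2 h at 37 °C after overnight plating.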
Background: A change in cytosolic calcium serves as a functional read-out for many receptors and channels.

Broadly, the IC50 is the midpoint of a concentration-inhibition curve. For the molecule `COc1ccc(CNS(=O)(=O)CCCN(Cc2ccc(Cl)cc2)C(=O)C2(C)CCN2C(=O)Cc2csc3ccccc23)c(OC)c1` (centres unmarked) [Compound 178, 1-(2-Benzo[b]thiophen-3-yl-acetyl)-2-methyl-azetidine-2-carboxylic acid (4-chloro-benzyl)-[3-(2,4-dimethoxy-benzylsulfamoyl)-propyl]-amide], the IC50 was over 1000 nM.

Take `Cc1cc(C)cc(CC(=O)N2CCC2(C)C(=O)N(CCS(=O)(=O)N2CCOCC2)Cc2ccc(Cl)cc2)c1` (centres unmarked) [Compound 179, 1-[2-(3,5-Dimethyl-phenyl)-acetyl]-2-methyl-azetidine-2-carboxylic acid (4-chloro-benzyl)-[2-(morpholine-4-sulfonyl)-ethyl]-amide]: the IC50 was over 1000 nM.

As for `Cc1cc(C)cc(CC(=O)N2CCC2(C)C(=O)N(CCCS(=O)(=O)N2CCN(C)CC2)Cc2ccc(Cl)cc2)c1` (centres unmarked) [Compound 180, 1-[2-(3,5-Dimethyl-phenyl)-acetyl]-2-methyl-azetidine-2-carboxylic acid (4-chloro-benzyl)-[3-(4-methyl-piperazine-1-sulfonyl)-propyl]-amide], the IC50 was in the range of 501 to 1000 nM.

In the case of `CC1(C(=O)N(CCCS(N)(=O)=O)Cc2ccc(Cl)cc2)CCN1C(=O)Cc1csc2ccccc12` (centres unmarked) [Compound 181, 1-(2-Benzo[b]thiophen-3-yl-acetyl)-2-methyl-azetidine-2-carboxylic acid (4-chloro-benzyl)-(3-sulfamoyl-propyl)-amide], the IC50 was 0.01 to 100 nM.

On to `CC1(C(=O)N(CCCC(=O)O)Cc2ccc3scnc3c2)CCN1C(=O)Cc1csc2ccccc12` (centres unmarked) [Compound 183, 4-{[1-(2-Benzo[b]thiophen-3-yl-acetyl)-2-methyl-azetidine-2-carbonyl]-benzothiazol-5-ylmethyl-amino}-butyric acid], for which the IC50 was in the range of 0.01 to 100 nM.

In the case of `CC1(C(=O)N(CCCC(=O)O)Cc2ccc3scnc3c2)CCN1C(=O)c1csc2ccccc12` (centres unmarked) [Compound 184, 4-{[1-(Benzo[b]thiophene-3-carbonyl)-2-methyl-azetidine-2-carbonyl]-benzothiazol-5-ylmethyl-amino}-butyric acid], the IC50 is 101 to 500 nM.

For the molecule `Cc1cc(C)cc(CC(=O)N2CCC2(C)C(=O)N(CCCC(=O)O)Cc2ccc3scnc3c2)c1` (centres unmarked) [Compound 185, 4-(Benzothiazol-5-ylmethyl-{1-[2-(3,5-dimethyl-phenyl)-acetyl]-2-methyl-azetidine-2-carbonyl}-amino)-butyric acid], the IC50 lay in the range of 501 to 1000 nM.

Regarding `CNS(=O)(=O)CCCN(Cc1ccc(Cl)cc1)C(=O)C1(C)CCN1C(=O)c1csc2ccccc12` (centres unmarked) [Compound 186, 1-(Benzo[b]thiophene-3-carbonyl)-2-methyl-azetidine-2-carboxlic acid (4-chloro-benzyl)-(3-methylsulfamoyl-propyl)-amide], the IC50 lay within 101 to 500 nM.

In the case of `CC1(C(=O)N(CCC(=O)O)Cc2ccc3cn[nH]c3c2)CCN1C(=O)c1csc2ccccc12` (centres unmarked) [Compound 188, 3-[[1-(Benzo[b]thiophene-3-carbonyl)-2-methyl-azetidine-2-carbonyl]-(1H-indazol-6-ylmethyl)-amino]-propionic acid], the IC50 lay within 501 to 1000 nM.

For the molecule `CNS(=O)(=O)CCCN(Cc1ccc(Cl)cc1)C(=O)C1(C)CCN1C(=O)Cc1csc2ccccc12` (centres unmarked) [Compound 189, 1-(2-Benzo[b]thiophen-3-yl-acetyl)-2-methyl-azetidine-2-carboxylic acid (4-chloro-benzyl)-(3-methylsulfamoyl-propyl)-amide], the IC50 was in the range of 0.01 to 100 nM.

Consider `CNS(=O)(=O)CCCN(Cc1cccc(Cl)c1)C(=O)C1(C)CCN1C(=O)c1csc2ccccc12` (centres unmarked) [Compound 190, 1-(Benzo[b]thiophene-3-carbonyl)-2-methyl-azetidine-2-carboxylic acid (3-chloro-benzyl)-(3-methylsulfamoyl-propyl)-amide], for which the IC50 was 0.01 to 100 nM.

For `CC1(C(=O)N(CCS(N)(=O)=O)Cc2ccc(Cl)cc2)CCN1C(=O)c1csc2ccccc12` (centres unmarked) [Compound 192, 1-(Benzo[b]thiophene-3-carbonyl)-2-methyl-azetidine-2-carboxylic acid (4-chloro-benzyl)-(2-sulfamoyl-ethyl)-amide], the IC50 was 0.01 to 100 nM.

For `CNS(=O)(=O)CCN(Cc1ccc(Cl)cc1)C(=O)C1(C)CCN1C(=O)c1csc2ccccc12` (centres unmarked) [Compound 193, 1-(Benzo[b]thiophene-3-carbonyl)-2-methyl-azetidine-2-carboxylic acid (4-chloro-benzyl)-(2-methylsulfamoyl-ethyl)-amide], the IC50 was in the range of 101 to 500 nM.

On to `Cc1cc(C)cc(OC(=O)N2CCC2(C)C(=O)N(CCCC(=O)O)Cc2ccc(Cl)cc2)c1` (centres unmarked) [Compound 196, 2-[(3-Carboxy-propyl)-(4-chloro-benzyl)-carbamoyl]-2-methyl-azetidine-1-carboxylic acid 3,5-dimethyl-phenyl ester], for which the IC50 fell in the range of 0.01 to 100 nM.

As for `C[C@H](c1ccc(Cl)cc1)N(CCCC(=O)O)C(=O)[C@@]1(C)CCN1C(=O)c1csc2ccccc12` [Compound 197, 4-{[(R)-1-(Benzo[b]thiophene-3-carbonyl)-2-methyl-azetidine-2-carbonyl]-[(R)-1-(4-chloro-phenyl)-ethyl]-amino}-butyric acid], the IC50 is 501 to 1000 nM.

As for `O=C(O)CCCN(Cc1cccc(Cl)c1)C(=O)C1(Cc2ccccc2)CCN1C(=O)c1csc2ccccc12` (centres unmarked) [Compound 199, 4-[[1-(Benzo[b]thiophene-3-carbonyl)-2-benzyl-azetidine-2-carbonyl]-(3-chloro-benzyl)-amino]-butyric acid], the IC50 is 101 to 500 nM.

In the case of `Cc1cc(C)cc(NC(=O)N2CCC2(C)C(=O)N(CCCC(=O)O)Cc2ccc(Cl)cc2)c1` (centres unmarked) [Compound 200, 4-{(4-chloro-benzyl)-[1-(3,5-dimethyl-phenylcarbamoyl)-2-methyl-azetidine-2-carbonyl]-amino}-butyric acid], the IC50 is over 1000 nM.

For the molecule `Cc1cc(C)cc(N(C)C(=O)N2CCC2(C)C(=O)N(CCCC(=O)O)Cc2ccc(Cl)cc2)c1` (centres unmarked) [Compound 201, 4-((4-Chloro-benzyl)-{1-[(3,5-dimethyl-phenyl)-methyl-carbamoyl]-2-methyl-azetidine-2-carbonyl}-amino)-butyric acid], the IC50 was over 1000 nM.

In the case of `CC1(C(=O)N(CCCC(=O)O)Cc2ccc(Cl)cc2)CCN1C(=O)Oc1ccccc1Cl` (centres unmarked) [Compound 202, 2-[(3-Carboxy-propyl)-(4-chloro-benzyl)-carbamoyl]-2-methyl-azetidine-1-carboxylic acid 2-chloro-phenyl ester], the IC50 was over 1000 nM.

Consider `CC(C)C1(C(=O)N(CCCC(=O)O)Cc2cccc(Cl)c2)CCN1C(=O)c1csc2ccccc12` (centres unmarked) [Compound 203, 4-[[1-(Benzo[b]thiophene-3-carbonyl)-2-isopropyl-azetidine-2-carbonyl]-(3-chloro-benzyl)-amino]-butyric acid], for which the IC50 was in the range of 0.01 to 100 nM.

Take `CCCC1(C(=O)N(CCCC(=O)O)Cc2cccc(Cl)c2)CCN1C(=O)c1csc2ccccc12` (centres unmarked) [Compound 204, 4-[[1-(Benzo[b]thiophene-3-carbonyl)-2-propyl-azetidine-2-carbonyl]-(3-chloro-benzyl)-amino]-butyric acid]: the IC50 lay in the range of 0.01 to 100 nM.

In the case of `Cc1ccccc1OC(=O)N1CCC1(C)C(=O)N(CCCC(=O)O)Cc1ccc(Cl)cc1` (centres unmarked) [Compound 205, 2-[(3-Carboxy-propyl)-(4-chloro-benzyl)-carbamoyl]-2-methyl-azetidine-1-carboxylic acid o-tolyl ester], the IC50 is over 1000 nM.

As to `CC1(C(=O)N(CCCS(N)(=O)=O)c2ccc(Cl)cc2)CCN1C(=O)c1csc2ccccc12` (centres unmarked) [Compound 206, 1-(Benzo[b]thiophene-3-carbonyl)-2-methyl-azetidine-2-carboxylic acid (4-chloro-phenyl)-(3-sulfamoyl-propyl)-amide], the IC50 lay in the range of 0.01 to 100 nM.

For `C[C@]1(C(=O)N(CCCC(=O)NS(C)(=O)=O)Cc2cccc(Cl)c2)CCN1C(=O)c1csc2ccccc12` [Compound 207, (R)-1-(benzo[b]thiophene-3-carbonyl)-N-(3-chlorobenzyl)-2-methyl-N-(4-(methylsulfonamido)-4-oxobutyl)azetidine-2-carboxamide], the IC50 was 0.01 to 100 nM.

Regarding `CCC1(C(=O)N(CCCS(N)(=O)=O)Cc2cccc(Cl)c2)CCN1C(=O)c1csc2ccccc12` (centres unmarked) [Compound 208, 1-(benzo[b]thiophene-3-carbonyl)-N-(3-chlorobenzyl)-2-ethyl-N-(3-sulfamoylpropyl)azetidine-2-carboxamide], the IC50 fell in the range of 0.01 to 100 nM.

As for `C[C@@H](c1ccc(Cl)cc1)N(CCCS(N)(=O)=O)C(=O)C1(C)CCN1C(=O)c1csc2ccccc12` (stereo partly drawn) [Compound 209, 1-(benzo[b]thiophene-3-carbonyl)-N-((S)-1-(4-chlorophenyl)ethyl)-2-methyl-N-(3-sulfamoylpropyl)azetidine-2-carboxamide], the IC50 was 101 to 500 nM.

As to `CC1(C(=O)N(CCCC(=O)O)Cc2ccc(Cl)cc2)CCN1C(=O)Oc1ccccc1F` (centres unmarked) [Compound 210, 4-(N-(4-chlorobenzyl)-1-((2-fluorophenoxy)carbonyl)-2-methylazetidine-2-carboxamido)butanoic acid], the IC50 was over 1000 nM.

Regarding `CC1(C(=O)N(CCCC(=O)O)Cc2ccc(Cl)cc2)CCN1C(=O)Oc1csc2ccccc12` (centres unmarked) [Compound 211, 4-(1-((benzo[b]thiophen-3-yloxy)carbonyl)-N-(4-chlorobenzyl)-2-methylazetidine-2-carboxamido)butanoic acid], the half-inhibitory concentration (IC50) lay within 0.01 to 100 nM.

With `Cc1ccc(OC(=O)N2CCC2(C)C(=O)N(CCCC(=O)O)Cc2ccc(Cl)cc2)c(C)c1` (centres unmarked) [Compound 213, 4-(N-(4-chlorobenzyl)-1-((2,4-dimethylphenoxy)carbonyl)-2-methylazetidine-2-carboxamido)butanoic acid], the half-maximal inhibitory concentration (IC50) was over 1000 nM.
